These are literature values, as cited in patent publication US20060275513A1, “Diet supplement for burning additional calories, providing sustained energy, supporting weight loss, and/or improving mental focus” (priority 2005, published 2006).

For this data set the following is noted: non-extended release format.

On to `Cn1c(=O)c2c(ncn2C)n(C)c1=O` [Caffeine], for which the accepted half-life is 3.5 to 5 h.
